One assay addresses T1, E. coli CsgA (Escherichia coli, UniProt P28307).
T1 construct: made in house; host or cells: E. coli NEB 3016 slyD::kan, pET11d
The assay is described as follows: In vitro ThioflavinT assay of CsgA aggregation (CsgA ThT Assay). The assay is classed as biochemical. To be noted: 1005 minutes; for remaining activity at 25 µM: compound 25 μM; for remaining activity at 100 µM: compound 100 μM. A digest of the protocol: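 Purified C-terminal His-tagged CsgA, monomerised by desalting and 30-kDa filtration, at 2-20 μM with 20-40 μM ThT in 50 mM potassium phosphate pH 7.3, 1% DMSO, compounds 3.125-200 uM; room temperature, fluorescence (ex 438/em 495 nm) read every 15 min. Background-subtracted signal expressed as percent inhibition versus vehicle at 6-6.5 or 8-9 h, or as percent control AUC.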

Assay [1] has as its system CsgA gene expression (csgBAC promoter-GFP reporter) in E. coli UTI89. Nature of the assay: In vitro live cell fluorescent reporter assay of CsgA transcription (Reporter Assay). The assay is classed as cell-based. To be noted: Escherichia coli. A digest of the protocol:
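Compounds at 0.14–100 μM (1% DMSO final) incubated 20 h at 27 °C in YESCA broth with UTI89 carrying a single-copy GFP reporter under the csgBAC intergenic promoter region, inoculum OD600 0.003. Fluorescence normalized to vehicle wells gave IC50 and 50%-of-vehicle concentration; OD600 reduction >10% flagged growth impact.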
Background: A reporter such as luciferase makes a cellular process visible.

Setting [2] is: read-out: CsgA ThT Assay (10 μM CsgA) % Control AUC at 1005 minutes, 25 μM (activity range), CsgA 10 μM, black plates, class symbol.
The mark [3] stands for this setting: read-out: CsgA ThT Assay (10 μM CsgA) % Control AUC at 1005 minutes, 25 μM, mean AUC as % of DMSO control, CsgA 10 μM, black plates.
Where [4] appears, read: read-out: CsgA ThT Assay (10 μM CsgA) % Control AUC at 1005 minutes, 100 μM (activity range), CsgA 10 μM, black plates, class symbol.
Setting [5] is: read-out: CsgA ThT Assay (10 μM CsgA) % Control AUC at 1005 minutes, 100 μM, mean AUC as % of DMSO control, CsgA 10 μM, black plates.
Setting [6] is: read-out: Reporter Assay Abs IC50 (activity range), median Abs IC50 in the CsgA reporter assay, class symbol.
Setting [7] is: read-out: Reporter Assay Abs IC50 (μM), median Abs IC50 in the CsgA reporter assay, N/A = maximum expression reduction is <50% of control.

Like-named read-outs stand apart in the source and are kept apart here.

One may read the IC50 as the point on the concentration scale where inhibition reaches its midpoint.

T1 sequence (P28307 23-151): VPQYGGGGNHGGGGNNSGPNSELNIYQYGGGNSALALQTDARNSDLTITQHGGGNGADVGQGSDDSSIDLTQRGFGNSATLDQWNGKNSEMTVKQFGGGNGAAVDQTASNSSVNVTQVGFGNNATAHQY

For the compound `Nc1c(Cc2cccc3ccccc23)c(-c2cccc(C(F)(F)F)c2)c2n(c1=O)C(C(=O)O)CN(CCCCO)S2(=O)=O` (stereo not drawn) [Compound 099, 7-amino-2-(4-hydroxybutyl)-8-(naphthalen-1-ylmethyl)-6-oxo-9-(3-(trifluoromethyl)phenyl)-3,4-dihydro-2H,6H-pyrido[1,2-e][1,2,5]thiadiazine-4-carboxylic acid 1,1-dioxide], the figures for the remaining activity at 25 µM on E. coli CsgA (setting [2]) and at E. coli CsgA (setting [3]) were 31 to 60% and 56%, respectively. Moreover, the figures for the remaining activity at 100 µM at E. coli CsgA (setting [4]) and on E. coli CsgA (setting [5]) were 31 to 60% and 44%, respectively. Besides, the figures for the IC50 in assay [1] (setting [6]) and in assay [1] (setting [7]) were greater than 10 µM and 17.6 µM, respectively.
In the case of `Nc1c(Cc2cccc3ccccc23)c(-c2cccc(C(F)(F)F)c2)c2n(c1=O)C(C(=O)O)CN(CCCCCO)S2(=O)=O` (stereo not drawn) [Compound 100, 7-amino-2-(5-hydroxypentyl)-8-(naphthalen-1-ylmethyl)-6-oxo-9-(3-(trifluoromethyl)phenyl)-3,4-dihydro-2H,6H-pyrido[1,2-e][1,2,5]thiadiazine-4-carboxylic acid 1,1-dioxide], the remaining activity at 25 µM on E. coli CsgA (setting [2]) was 31 to 60%; on E. coli CsgA (setting [3]), 41%. The remaining activity at 100 µM at E. coli CsgA (setting [4]) was 31 to 60%; on E. coli CsgA (setting [5]), 31%. Besides, the IC50 in assay [1] (setting [6]) was greater than 10 µM; in assay [1] (setting [7]) it was 14.5 µM.
As for `CN1CC(C(=O)O)n2c(c(-c3cccc(C(F)(F)F)c3)c(Cc3cccc4ccccc34)c(C(O)CO)c2=O)S1(=O)=O` (stereo not drawn) [Compound 101, 7-(1,2-dihydroxyethyl)-2-methyl-8-(naphthalen-1-ylmethyl)-6-oxo-9-(3-(trifluoromethyl)phenyl)-3,4-dihydro-2H,6H-pyrido[1,2-e][1,2,5]thiadiazine-4-carboxylic acid 1,1-dioxide], the remaining activity at 25 µM on E. coli CsgA (setting [2]) is greater than 60%; on E. coli CsgA (setting [3]), 61%. Besides, the figures for the remaining activity at 100 µM on E. coli CsgA (setting [4]) and at E. coli CsgA (setting [5]) were 11 to 31% and 15%, respectively. Moreover, the IC50 in assay [1] (setting [6]) was greater than 10 µM; in assay [1] (setting [7]) it was 29 µM.
As to `CN1CC(C(=O)O)n2c(c(-c3cccc(C(F)(F)F)c3)c(Cc3cccc4ccccc34)c(N3CCNCC3)c2=O)S1(=O)=O` (stereo not drawn) [Compound 102, 2-methyl-8-(naphthalen-1-ylmethyl)-6-oxo-7-(piperazin-1-yl)-9-(3-(trifluoromethyl)phenyl)-3,4-dihydro-2H,6H-pyrido[1,2-e][1,2,5]thiadiazine-4-carboxylic acid 1,1-dioxide], the remaining activity at 25 µM was greater than 60% at E. coli CsgA (setting [2]) and 90% at E. coli CsgA (setting [3]). In addition, the figures for the remaining activity at 100 µM at E. coli CsgA (setting [4]) and on E. coli CsgA (setting [5]) were 31 to 60% and 57%, respectively. The IC50 in assay [1] (setting [6]) was 4.6 to 10 µM; in assay [1] (setting [7]), 5.4 µM.
Consider `CN1CC(C(=O)O)n2c1c(-c1cccc(C(F)(F)F)c1)c(Cc1cccc3ccccc13)cc2=O` (stereo not drawn) [Compound 104, 1-methyl-7-(naphthalen-1-ylmethyl)-5-oxo-8-(3-(trifluoromethyl)phenyl)-1,2,3,5-tetrahydroimidazo[1,2-a]pyridine-3-carboxylic acid], for which the remaining activity at 25 µM was greater than 60% at E. coli CsgA (setting [2]) and 82% on E. coli CsgA (setting [3]). Also, the remaining activity at 100 µM is 31 to 60% on E. coli CsgA (setting [4]) and 52% on E. coli CsgA (setting [5]). Moreover, the figures for the IC50 in assay [1] (setting [6]) and in assay [1] (setting [7]) were 4.6 to 10 µM and 6 µM, respectively.
Take `Nc1c(Cc2cccc3ccccc23)c(-c2cccc(C(F)(F)F)c2)c2n(c1=O)C(C(=O)O)CN(C[C@H](O)[C@@H](O)[C@H](O)[C@H](O)CO)S2(=O)=O` (stereo partly drawn) [Compound 105, 7-amino-8-(naphthalen-1-ylmethyl)-6-oxo-2-((2S,3R,4R,5R)-2,3,4,5,6-pentahydroxyhexyl)-9-(3-(trifluoromethyl)phenyl)-3,4-dihydro-2H,6H-pyrido[1,2-e][1,2,5]thiadiazine-4-carboxylic acid 1,1-dioxide]: the remaining activity at 25 µM is greater than 60% at E. coli CsgA (setting [2]) and 102% at E. coli CsgA (setting [3]). Also, the remaining activity at 100 µM is greater than 60% at E. coli CsgA (setting [4]) and 70% at E. coli CsgA (setting [5]). The IC50 was greater than 10 µM in assay [1] (setting [6]) and 36 µM in assay [1] (setting [7]).
As to `O=C(O)C1CN(C(CO)CO)S(=O)(=O)c2c(-c3cccc(C(F)(F)F)c3)c(Cc3cccc4ccccc34)cc(=O)n21` (stereo not drawn) [Compound 106, 2-(1,3-dihydroxypropan-2-yl)-8-(naphthalen-1-ylmethyl)-6-oxo-9-(3-(trifluoromethyl)phenyl)-3,4-dihydro-2H,6H-pyrido[1,2-e][1,2,5]thiadiazine-4-carboxylic acid 1,1-dioxide], the results for the remaining activity at 25 µM on E. coli CsgA (setting [2]) and at E. coli CsgA (setting [3]) were greater than 60% and 95%, respectively. The remaining activity at 100 µM is 31 to 60% at E. coli CsgA (setting [4]) and 38% at E. coli CsgA (setting [5]). For the same compound, the values for the IC50 in assay [1] (setting [6]) and in assay [1] (setting [7]) were greater than 10 µM and 28.3 µM, respectively.
With `CCCN1CC(C(=O)O)n2c(c(-c3cccc(C(F)(F)F)c3)c(Cc3cccc4ccccc34)c(Br)c2=O)S1(=O)=O` (stereo not drawn) [Compound 107, 7-bromo-8-(naphthalen-1-ylmethyl)-6-oxo-2-propyl-9-(3-(trifluoromethyl)phenyl)-3,4-dihydro-2H,6H-pyrido[1,2-e][1,2,5]thiadiazine-4-carboxylic acid 1,1-dioxide], the remaining activity at 25 µM on E. coli CsgA (setting [2]) was 31 to 60%; on E. coli CsgA (setting [3]), 36%. Besides, the remaining activity at 100 µM at E. coli CsgA (setting [4]) is 31 to 60%; at E. coli CsgA (setting [5]), 38%. The IC50 in assay [1] (setting [6]) was 1.3 to 4.5 µM; in assay [1] (setting [7]) it was 3.7 µM.
Take `CN(C)Cc1c(Cc2cccc3ccccc23)c(-c2cccc(C(F)(F)F)c2)c2n(c1=O)C(C(=O)O)CN(C)S2(=O)=O` (stereo not drawn) [Compound 108, 7-((dimethylamino)methyl)-2-methyl-8-(naphthalen-1-ylmethyl)-6-oxo-9-(3-(trifluoromethyl)phenyl)-3,4-dihydro-2H,6H-pyrido[1,2-e][1,2,5]thiadiazine-4-carboxylic acid 1,1-dioxide]: the remaining activity at 25 µM on E. coli CsgA (setting [2]) is 11 to 31%; on E. coli CsgA (setting [3]), 14%. The remaining activity at 100 µM on E. coli CsgA (setting [4]) is 11 to 31%; at E. coli CsgA (setting [5]) it was 25%. Moreover, the IC50 in assay [1] (setting [6]) is less than 1.3 µM; in assay [1] (setting [7]), 0.6 µM.
With `CCc1c(Cc2cccc3ccccc23)c(-c2cccc(C(F)(F)F)c2)c2n(c1=O)C(C(=O)O)CN(CCCO)S2(=O)=O` (stereo not drawn) [Compound 112, 7-ethyl-2-(3-hydroxypropyl)-8-(naphthalen-1-ylmethyl)-6-oxo-9-(3-(trifluoromethyl)phenyl)-3,4-dihydro-2H,6H-pyrido[1,2-e][1,2,5]thiadiazine-4-carboxylic acid 1,1-dioxide], the remaining activity at 25 µM on E. coli CsgA (setting [2]) is 31 to 60%; at E. coli CsgA (setting [3]), 35%. In addition, the values for the remaining activity at 100 µM on E. coli CsgA (setting [4]) and at E. coli CsgA (setting [5]) were 11 to 31% and 20%, respectively. Also, the figures for the IC50 in assay [1] (setting [6]) and in assay [1] (setting [7]) were 4.6 to 10 µM and 9 µM, respectively.
On to `CCc1c(Cc2cccc3ccccc23)c(-c2cccc(C(F)(F)F)c2)c2n(c1=O)C(C(=O)O)CN(CCCCO)S2(=O)=O` (stereo not drawn) [Compound 113, 7-ethyl-2-(4-hydroxybutyl)-8-(naphthalen-1-ylmethyl)-6-oxo-9-(3-(trifluoromethyl)phenyl)-3,4-dihydro-2H,6H-pyrido[1,2-e][1,2,5]thiadiazine-4-carboxylic acid 1,1-dioxide], for which the results for the remaining activity at 25 µM at E. coli CsgA (setting [2]) and on E. coli CsgA (setting [3]) were 31 to 60% and 41%, respectively. Also, the results for the remaining activity at 100 µM on E. coli CsgA (setting [4]) and on E. coli CsgA (setting [5]) were 11 to 31% and 24%, respectively. Further, the values for the IC50 in assay [1] (setting [6]) and in assay [1] (setting [7]) were 4.6 to 10 µM and 4.6 µM, respectively.
`CCc1c(Cc2cccc3ccccc23)c(-c2cccc(C(F)(F)F)c2)c2n(c1=O)C(C(=O)O)CN(CCCCCO)S2(=O)=O` (stereo not drawn) [Compound 114, 7-ethyl-2-(5-hydroxypentyl)-8-(naphthalen-1-ylmethyl)-6-oxo-9-(3-(trifluoromethyl)phenyl)-3,4-dihydro-2H,6H-pyrido[1,2-e][1,2,5]thiadiazine-4-carboxylic acid 1,1-dioxide]: the remaining activity at 25 µM is 31 to 60% at E. coli CsgA (setting [2]) and 37% at E. coli CsgA (setting [3]). For the same compound, the values for the remaining activity at 100 µM on E. coli CsgA (setting [4]) and on E. coli CsgA (setting [5]) were 11 to 31% and 21%, respectively. Further, the IC50 in assay [1] (setting [6]) is 4.6 to 10 µM; in assay [1] (setting [7]) it was 7 µM.
Regarding `CCc1c(Cc2cccc3ccccc23)c(-c2cccc(C(F)(F)F)c2)c2n(c1=O)C(C(=O)O)CN(C(C)C)S2(=O)=O` (stereo not drawn) [Compound 115, 7-ethyl-2-isopropyl-8-(naphthalen-1-ylmethyl)-6-oxo-9-(3-(trifluoromethyl)phenyl)-3,4-dihydro-2H,6H-pyrido[1,2-e][1,2,5]thiadiazine-4-carboxylic acid 1,1-dioxide], the remaining activity at 25 µM on E. coli CsgA (setting [2]) was 31 to 60%; on E. coli CsgA (setting [3]), 35%. The values for the remaining activity at 100 µM on E. coli CsgA (setting [4]) and on E. coli CsgA (setting [5]) were 11 to 31% and 23%, respectively. The IC50 in assay [1] (setting [6]) is 4.6 to 10 µM; in assay [1] (setting [7]), 7.2 µM.

The record behind these values is patent publication US20230131899A1, “INHIBITORS OF MICROBIALLY INDUCED AMYLOID” (Axial Therapeutics, Inc., priority 2020, published 2023).
